Laboratory results taken from patent publication US11970489B1, “4-[(substituted 1H-benzimidazol-2-ylsulfanyl)methyl]-6-substituted-2H-chromen-2-ones as larvicidal agents” (KING FAISAL UNIVERSITY, priority 2023, dated 2024).
Where two headings read alike, the source gives them in different places.

Legend:
Anopheles arabiensis = experiment: Larvicidal screening (WHO protocol), 3rd instar larvae; type: in vivo
Description: Anopheles arabiensis was used in the study according to the protocol described by WHO (1975) guidelines in an insectary simulating the temperature (27.5° C.), humidity (70%), and lighting (12/12) of a malaria-endemic environment. One mL of test compound (1 mg/mL) was added to 1 mL of acetone and followed by […] of distilled water to obtain a final concentration of 4 μg/mL. Thirty individuals of 3rd instar larvae were introduced into a container. Negative control was set up using the solvent (acetone) and distilled water, and a positive control included Temephos, which is an active emulsified organophosphate larvicidal used by malaria control programs. Larval mortality was examined for each container separately for 24 h and fed specially made cat food that contained less oil/fat content. The percentage of mortality was determined relative to the initial number of larvae exposed.
Differences in larval mortality between treatments were assessed with generalized linear models using a quasi-Poisson link function. Anopheles arabiensis mortality was the dependent variable, while fixed effects were test compounds and observation period (24 and 48 h). A p-value <0.05 was considered statistically significant. Throughout the text, the results are presented as the adjusted mean the standard error.

Row | Structure (SMILES) | melting point [°C] | mortality at 4 µg/mL (Anopheles arabiensis; 24 h, read-out: Mortality 24 h) [%] | mortality at 4 µg/mL (Anopheles arabiensis; 48 h, read-out: Mortality 48 h) [%]
1 | Cc1ccc2oc(=O)cc(CSc3nc4ccccc4s3)c2c1 | 192 to 194 | – | –
2 | CC(C)(C)c1ccc2oc(=O)cc(CSc3nc4ccccc4o3)c2c1 | 212 to 214 | – | –
3 | Cc1ccc2oc(=O)cc(CSc3nc4ccccc4o3)c2c1 [Compound 3c, 4-[(1,3-Benzoxazol-2-ylsulfanyl)methyl]-6-methyl-2H-chromen-2-one] | – | 70.1 ± 2.29 | 75.8 ± 2.21
4 | Cc1ccc2oc(=O)cc(CSc3nnc(C)s3)c2c1 [Compound 3e, 6-Methyl-4-{[(5-methyl-1,3,4-thiadiazol-2-yl)sulfanyl]methyl}-2H-chromen-2-one] | – | 77.2 ± 2.02 | 82.2 ± 1.93
5 | CC(C)(C)c1ccc2oc(=O)cc(CSc3nc4ccccc4s3)c2c1 [Compound 3i, 4-[(1,3-Benzothiazol-2-ylsulfanyl)methyl]-6 tert-butyl-2H-chromen-2-one] | – | 89.9 ± 2.44 | 94.7 ± 2.11
6 | Cc1nnc(SCc2cc(=O)oc3ccc(C(C)(C)C)cc23)s1 [Compound 3j, 4-{[(5-Methyl-1,3,4-thiadiazol-2-yl)sulfanyl]methyl}-6 tert-butyl-2H-chromen-2-one] | – | 94.7 ± 2.61 | 95.1 ± 2.09
7 | COP(=S)(OC)Oc1ccc(Sc2ccc(OP(=S)(OC)OC)cc2)cc1 [Temephos, reference compound] | – | 98.9 ± 2.7 | 100 ± 2.71

Further lines, with some results ahead:

Row | melting point [°C] | Structure (SMILES) | mortality at 4 µg/mL (Anopheles arabiensis; 24 h, read-out: Mortality 24 h) [%] | mortality at 4 µg/mL (Anopheles arabiensis; 48 h, read-out: Mortality 48 h) [%]
8 | 190 to 192 | Cc1ccc2oc(=O)cc(CSc3nc4ccccc4[nH]3)c2c1 | – | –
9 | 176 to 178 | COc1ccc2nc(SCc3cc(=O)oc4ccc(C)cc34)[nH]c2c1 | – | –
10 | 189 to 190 | CC(C)(C)c1ccc2oc(=O)cc(CSc3nc4ccccc4[nH]3)c2c1 | – | –
